The text below walks through data of publication PMC8272121, “Synthesis and Evaluation of Chalcone-Quinoline Based Molecular Hybrids as Potential Anti-Malarial Agents” (Molecules, 2021).

Molecules are shown by their SMILES. ≈ marks a conversion by molar mass, not a printed value.

Series [1] has as its system P. falciparum NF54 (drug-sensitive strain). The series is described as follows: In vitro antiplasmodial assay (parasite lactate dehydrogenase), chloroquine-sensitive NF54 strain. The series is classed as cell-based, Plasmodium falciparum. To be noted: Plasmodium falciparum; sensitive (NF54) strain of P. falciparum; pLDH assay, 48 h; mean of ≥2 independent experiments; read-out: PfNF54 IC50. As for the experimental part: All the synthesized molecular hybrids (6–27) were evaluated for in vitro antiplasmodial activity against the drug-sensitive strain (NF54) of P. falciparum and for cytotoxicity against the Chinese Hamster Ovary (CHO) mammalian cell line using emetine as a reference drug. Aqueous solubility was determined at pH 6.5 (Table 2).
In-vitro anti-plasmodium assay. Compounds were tested using parasite lactate dehydrogenase assay as a marker for parasite survival. The respective stock solutions of CQ diphosphate and test compounds were prepared by dissolving 2 mg/mL in distilled water (for CQ) and 100% DMSO for test compounds. The solutions were then stored at −20 °C, with further dilutions prepared on the day of the experiment. The cultures were synchronized in the ring stage as described previously using 15 mL of 5% (w/v) d-sorbitol in water. Synchronous cultures of PfNF54 (CQS) in the late trophozoite stage were prepared to 2% parasitemia and 2% hematocrit. […] Following incubation, 100 μL of MalStat reagent and 15 μL of resuspended culture were combined, followed by addition of 25 μL of nitro blue tetrazolium chloride (NBT). The plates were kept in the dark for about 10 min to fully develop, and absorbance was measured at 620 nm on a microplate reader. Raw data were exported to Microsoft Excel for dose-response analysis.

Series [2] concerns Chinese Hamster Ovary (CHO) mammalian cell line. The series is described as follows: Cytotoxicity MTT assay on CHO cells. The series is classed as cell-based. To be noted: for IC50: Cricetulus griseus, CHO, Chinese hamster ovarian cell line, MTT, 48 h; for SI (selectivity index): SI = IC50 (CHO)/IC50 (PfNF54). As for the experimental part:
All the synthesized molecular hybrids (6–27) were evaluated for in vitro antiplasmodial activity against the drug-sensitive strain (NF54) of P. falciparum and for cytotoxicity against the Chinese Hamster Ovary (CHO) mammalian cell line using emetine as a reference drug. Aqueous solubility was determined at pH 6.5 (Table 2). Cytotoxicity assay. […] The reference standard, emetine, was prepared to 2 mg/mL in distilled water while stock solutions of test compounds were prepared to 20 mg/mL in 100% DMSO with the highest concentration of solvent to which the cells were exposed having no measurable effect on the cell viability. The initial concentration of the compounds and control was 100 μg/mL, which was serially diluted in complete medium with 10-fold dilutions to give six concentrations, the lowest being 0.001 μg/mL. Plates were incubated for 48 h with 100 μL of drug and 100 μL of cell suspension in each well and developed afterward by adding 25 μL of sterile MTT (Thermo Fisher Scientific) to each well, followed by 4 h of incubation in the dark. The plates were then centrifuged; the medium was aspirated, and 100 μL of DMSO was added to dissolve crystals before reading the absorbance at 540 nm. Data were analyzed, and the sigmoidal dose-response was derived using GraphPad Prism v 4.0 software (La Jolla). All experiments were performed for at least three independent biological repeats, each with technical triplicates.
Background: Tetrazolium dyes change colour on reduction, which living cells bring about.

The subject of series [3] is P. falciparum K1 (multi-drug resistant strain). As to the kind of experiment: In vitro antiplasmodial activity against multi-drug resistant K1 strain. The series is classed as cell-based. Particulars: Plasmodium falciparum; multi-drug resistant K1 strain of P. falciparum; read-out: PfK1 IC50.
Series [4] in a line: Aqueous solubility, miniaturized shake flask method (HPLC-DAD). The series is classed as physicochemical. Particulars: aqueous solution, aqueous buffer, thermodynamic from solid, pH 6.5, shake flask 20 h, 25 °C. Here is the method: All the synthesized molecular hybrids (6-27) were evaluated for in vitro antiplasmodial activity against the drug-sensitive strain (NF54) of P. falciparum and for cytotoxicity against the Chinese Hamster Ovary (CHO) mammalian cell line using emetine as a reference drug. Aqueous solubility was determined at pH 6.5 (Table 2). Aqueous solubility. Water solubility was analyzed using a miniaturized shake flask method. Ten millimolar stock solutions of each of the compounds were used to prepare calibration standards (10-220 μM) in DMSO. The same 10 mM stock solutions were accurately dispensed in duplicate into 96-well plates, and the DMSO, dried down ([…],90 min, 37 °C). Thereafter, the samples were reconstituted (200 μM) in an aqueous solution and shaken (20 h, 25 °C). The solutions were analyzed by means of HPLC-DAD (Agilent1200 Rapid Resolution HPLC with a diode array detector). Best fit calibration curves were constructed using the calibration standards, which were used to determine the aqueous samples' solubility.

For the compound `O=C(/C=C/c1ccc(Cl)cc1)c1ccc(S(=O)(=O)NCCCNc2ccnc3cc(Cl)ccc23)cc1` [Compound 11, (E)-4-(3-(4-chlorophenyl)acryloyl)-N-(3-((7-chloroquinolin-4-yl)amino)propyl)benzenesulfonamide], the values for the IC50 in series [1], in series [2] and in series [3] were 100 nM, 41200 nM and 6000 nM, respectively. Moreover, the “SI (selectivity index)” value in series [2] was determined as 416.2.
In the case of `O=C(/C=C/c1ccc2c(c1)OCO2)c1ccc(S(=O)(=O)NCCCNc2ccnc3cc(Cl)ccc23)cc1` [Compound 26, (E)-4-(3-(benzo[d][1,3]dioxol-5-yl)acryloyl)-N-(3-((7-chloroquinolin-4-yl)amino)propyl)benzenesulfonamide], the melting point (commonly the temperature, or range, at which the solid turns liquid) lay in the range of 222 to 224 °C. In series [1], the IC50 (commonly the concentration needed to halve the response being measured) came out at 690 nM. Moreover, in series [2], the IC50 is 34100 nM and the “SI (selectivity index)” value amounted to 49.5. In addition, in series [4], the concentration in solution (solubility at 20 h) came to 200 µM (≈ 110 µg/mL).
The matching figures for `COc1cc(/C=C/C(=O)c2ccc(S(=O)(=O)NCCCNc3ccnc4cc(Cl)ccc34)cc2)cc(OC)c1OC` [Compound 16, (E)-N-(3-((7-chloroquinolin-4-yl)amino)propyl)-4-(3-(3,4,5-trimethoxyphenyl)acryloyl)benzenesulfonamide]: 197 to 200 °C, 580 nM, 22600 nM, 39.0 and 15 µM (≈ 8.94 µg/mL).
The matching figures for `Cc1ccc(/C=C/C(=O)c2ccc(S(=O)(=O)NCCCNc3ccnc4cc(Cl)ccc34)cc2)cc1` [Compound 7, (E)-N-(3-((7-chloroquinolin-4-yl)amino)propyl)-4-(3-(p-tolyl)acryloyl)benzenesulfonamide]: 209 to 213 °C, 370 nM, 25100 nM, 67.8 and 130 µM (≈ 67.6 µg/mL).
The matching figures for `CC(=O)c1ccc(S(=O)(=O)NCCNc2ccnc3cc(Cl)ccc23)cc1` [Compound 4, 4-acetyl-N-(2-((7-chloroquinolin-4-yl)amino)ethyl)benzenesulfonamide]: 200 to 204 °C, 450 nM, 26300 nM, 58.4 and 200 µM (≈ 80.8 µg/mL).
Consider `O=C(/C=C/c1ccc(F)cc1F)c1ccc(S(=O)(=O)NCCCNc2ccnc3cc(Cl)ccc23)cc1` [Compound 18, (E)-N-(3-((7-chloroquinolin-4-yl)amino)propyl)-4-(3-(2,4-difluorophenyl)acryloyl)benzenesulfonamide], for which the melting point lay in the range of 216 to 218 °C. Besides, the IC50 in series [1] came out at 500 nM. In series [2], the IC50 turned out to be 22400 nM and the “SI (selectivity index)” value amounted to 45.2. In addition, the solubility (commonly the dissolved amount per volume that the medium holds) at 20 h in series [4] worked out at 130 µM (≈ 70.5 µg/mL).
`COc1ccc(/C=C/C(=O)c2ccc(S(=O)(=O)NCCCNc3ccnc4cc(Cl)ccc34)cc2)cc1` [Compound 12, (E)-N-(3-((7-chloroquinolin-4-yl)amino)propyl)-4-(3-(4-methoxyphenyl)acryloyl)benzenesulfonamide]: the melting point lay in the range of 221 to 223 °C. The IC50 in series [1] came to 110 nM. Moreover, in series [2], half-maximal inhibition (IC50) was put at 43300 nM and the “SI (selectivity index)” value was 393.6. In addition, in series [3], the IC50 is 590 nM.
Turning to `O=C(/C=C/c1ccccc1Br)c1ccc(S(=O)(=O)NCCCNc2ccnc3cc(Cl)ccc23)cc1` [Compound 8, (E)-4-(3-(2-bromophenyl)acryloyl)-N-(3-((7-chloroquinolin-4-yl)amino)propyl)benzenesulfonamide], the IC50 in series [1] was found to be 100 nM; in series [2], 43200 nM; in series [3] it was 2970 nM. Moreover, in series [2], the “SI (selectivity index)” value turned out to be 435.
